# Data from PubChem BioAssay (NCI).
#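 Test compounds were applied to cells in 96-well plates for 48 hours at 5 doses. TGI denotes the concentration required for complete inhibition of growth.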
# How the values were obtained:
# Assay in all cases: inhibition of tumour cell growth, NCI panel, 48 h
# [1] = tested on: M19-MEL melanoma
# [2] = tested on: SK-MEL-2 melanoma
# [3] = tested on: UACC-257 melanoma
# [4] = tested on: RPMI-8226 leukemia
# [5] = tested on: SN12C renal
# [6] = tested on: OVCAR-3 ovarian
# [7] = tested on: CCRF-CEM leukemia
# [8] = tested on: OVCAR-5 ovarian
# [9] = tested on: SK-MEL-5 melanoma
# [10] = tested on: NCI-H23 lung
# [11] = tested on: EKVX NSCLC
# [12] = tested on: SF-268 CNS
# [13] = tested on: OVCAR-4 ovarian
# [14] = tested on: M14 melanoma
# [15] = tested on: RXF-631 renal
# [16] = tested on: HL-60(TB) leukemia
# [17] = tested on: NCI-H460 lung
# [18] = tested on: SNB-19 CNS
# [19] = tested on: 786-0 renal
# [20] = tested on: HCC-2998 colon
# [21] = tested on: XF 498 CNS
# [22] = tested on: NCI-H226 lung
# [23] = tested on: DMS 273 small cell lung
# [24] = tested on: RXF 393 renal
# [25] = tested on: HCT-116 colon
# [26] = tested on: TK-10 renal
# [27] = tested on: OVCAR-8 ovarian
# [28] = tested on: UACC-62 melanoma
# [29] = tested on: SK-OV-3 ovarian
# [30] = tested on: SW-620 colon
# [31] = tested on: HT29 colon
# [32] = tested on: KM12 colon
# [33] = tested on: MOLT-4 leukemia
# [34] = tested on: MALME-3M melanoma
# [35] = tested on: IGROV1 ovarian
# [36] = tested on: COLO 205 colon
# [37] = tested on: CAKI-1 renal
# [38] = tested on: A498 renal
# [39] = tested on: UO-31 renal
# [40] = tested on: HOP-18 NSCLC
# [41] = tested on: DLD-1 colon
# [42] = tested on: KM20L2 colon
# [43] = tested on: A549 NSCLC
# [44] = tested on: K-562 leukemia
# [45] = tested on: SF-539 CNS
# [46] = tested on: SNB-75 CNS
# [47] = tested on: U251 CNS
# [48] = tested on: LOX IMVI melanoma
# [49] = tested on: SF-295 CNS
# [50] = tested on: SK-MEL-28 melanoma
# [51] = tested on: LXFL 529 NSCLC
# [52] = tested on: DMS 114 small cell lung
# [53] = tested on: HCT-15 colon
# [54] = tested on: ACHN renal
# [55] = tested on: SR leukemia
# [56] = tested on: HOP-62 NSCLC
# [57] = tested on: NCI-H522 lung
# [58] = tested on: SNB-78 CNS
# [59] = tested on: HOP-92 NSCLC
structure (smiles),measurement,setting,value
N#CC(C(=O)C(N)=O)c1ccccc1Cl (stereo not drawn),TGI,[1],> 100 µM
same,TGI,[2],> 100 µM
same,TGI,[3],> 100 µM
same,TGI,[4],> 100 µM
same,TGI,[5],> 100 µM
same,TGI,[6],> 100 µM
same,TGI,[7],> 100 µM
same,TGI,[8],> 100 µM
same,TGI,[9],> 100 µM
same,TGI,[10],> 100 µM
same,TGI,[11],> 100 µM
same,TGI,[12],> 100 µM
same,TGI,[13],> 100 µM
same,TGI,[14],> 100 µM
same,TGI,[15],> 100 µM
same,TGI,[16],> 100 µM
same,TGI,[17],> 100 µM
same,TGI,[18],> 100 µM
same,TGI,[19],> 100 µM
same,TGI,[20],> 100 µM
same,TGI,[21],> 100 µM
same,TGI,[22],> 100 µM
same,TGI,[23],> 100 µM
same,TGI,[24],> 100 µM
same,TGI,[25],> 100 µM
same,TGI,[26],> 100 µM
same,TGI,[27],> 100 µM
same,TGI,[28],> 100 µM
same,TGI,[29],> 100 µM
same,TGI,[30],> 100 µM
same,TGI,[31],> 100 µM
same,TGI,[32],> 100 µM
same,TGI,[33],> 100 µM
same,TGI,[34],> 100 µM
same,TGI,[35],> 100 µM
same,TGI,[36],> 100 µM
same,TGI,[37],> 100 µM
same,TGI,[38],> 100 µM
same,TGI,[39],> 100 µM
same,TGI,[40],> 100 µM
same,TGI,[41],> 100 µM
same,TGI,[42],> 100 µM
same,TGI,[43],> 100 µM
same,TGI,[44],> 100 µM
same,TGI,[45],> 100 µM
same,TGI,[46],> 100 µM
same,TGI,[47],> 100 µM
same,TGI,[48],> 100 µM
same,TGI,[49],> 100 µM
same,TGI,[50],> 100 µM
same,TGI,[51],> 100 µM
same,TGI,[52],> 100 µM
same,TGI,[53],> 100 µM
same,TGI,[54],> 100 µM
CCCCCCC1=NOC(C(c2cc[nH]c2)N(C)[C@H](C(=O)OC)C(C)C)C1 (stereo partly drawn),TGI,[1],> 100 µM
same,TGI,[2],65.9 µM
same,TGI,[3],> 100 µM
same,TGI,[5],51.6 µM
same,TGI,[6],77.6 µM
same,TGI,[7],53.9 µM
same,TGI,[55],91.6 µM
same,TGI,[8],> 100 µM
same,TGI,[9],> 100 µM
same,TGI,[10],> 100 µM
same,TGI,[11],> 100 µM
same,TGI,[12],> 100 µM
same,TGI,[13],> 100 µM
same,TGI,[14],> 100 µM
same,TGI,[15],> 100 µM
same,TGI,[16],63.7 µM
same,TGI,[18],> 100 µM
same,TGI,[19],> 100 µM
same,TGI,[20],> 100 µM
same,TGI,[21],> 100 µM
same,TGI,[22],> 100 µM
same,TGI,[23],> 100 µM
same,TGI,[24],> 100 µM
same,TGI,[25],> 100 µM
same,TGI,[26],> 100 µM
same,TGI,[27],> 100 µM
same,TGI,[28],> 100 µM
same,TGI,[29],> 100 µM
same,TGI,[30],68 µM
same,TGI,[56],> 100 µM
same,TGI,[31],> 100 µM
same,TGI,[57],33.9 µM
same,TGI,[32],63.6 µM
same,TGI,[33],62.7 µM
same,TGI,[34],> 100 µM
same,TGI,[35],> 100 µM
same,TGI,[36],32.2 µM
same,TGI,[37],> 100 µM
same,TGI,[38],> 100 µM
same,TGI,[39],> 100 µM
same,TGI,[40],> 100 µM
same,TGI,[41],> 100 µM
same,TGI,[42],> 100 µM
same,TGI,[43],> 100 µM
same,TGI,[58],87.1 µM
same,TGI,[44],> 100 µM
same,TGI,[45],> 100 µM
same,TGI,[46],> 100 µM
same,TGI,[47],> 100 µM
same,TGI,[59],> 100 µM
same,TGI,[48],74.6 µM
same,TGI,[49],> 100 µM
same,TGI,[50],> 100 µM
same,TGI,[51],> 100 µM
same,TGI,[52],> 100 µM
same,TGI,[54],> 100 µM
CC1(C)OCC[C@@H]1[Si](C)(C)C,TGI,[1],> 100 µM
same,TGI,[2],> 100 µM
same,TGI,[3],> 100 µM
same,TGI,[4],> 100 µM
same,TGI,[5],> 100 µM
same,TGI,[6],> 100 µM
same,TGI,[7],> 100 µM
same,TGI,[8],> 100 µM
same,TGI,[9],> 100 µM
same,TGI,[10],> 100 µM
same,TGI,[11],> 100 µM
same,TGI,[12],> 100 µM
same,TGI,[13],> 100 µM
same,TGI,[14],> 100 µM
same,TGI,[15],> 100 µM
same,TGI,[17],> 100 µM
same,TGI,[18],> 100 µM
same,TGI,[19],> 100 µM
same,TGI,[21],> 100 µM
same,TGI,[22],> 100 µM
same,TGI,[23],> 100 µM
same,TGI,[24],89.8 µM
same,TGI,[25],> 100 µM
same,TGI,[26],> 100 µM
same,TGI,[27],> 100 µM
same,TGI,[28],> 100 µM
same,TGI,[29],> 100 µM
same,TGI,[30],> 100 µM
same,TGI,[31],> 100 µM
same,TGI,[57],61 µM
same,TGI,[32],> 100 µM
same,TGI,[33],> 100 µM
same,TGI,[34],> 100 µM
same,TGI,[35],> 100 µM
same,TGI,[36],> 100 µM
same,TGI,[38],> 100 µM
same,TGI,[39],> 100 µM
same,TGI,[40],> 100 µM
same,TGI,[42],> 100 µM
same,TGI,[43],> 100 µM
same,TGI,[58],> 100 µM
same,TGI,[44],> 100 µM
same,TGI,[45],> 100 µM
same,TGI,[46],> 100 µM
same,TGI,[47],> 100 µM
same,TGI,[59],> 100 µM
same,TGI,[48],> 100 µM
same,TGI,[49],> 100 µM
same,TGI,[50],> 100 µM
same,TGI,[51],> 100 µM
same,TGI,[52],> 100 µM
same,TGI,[53],> 100 µM
same,TGI,[54],> 100 µM
